Source: PubChem BioAssay AID1508612

Assay: passive permeability, PAMPA, ADME assay (AID 1508612)
Details: pH 7.4, 30.0 min, 50.0 µM

| Papp [×10⁻⁶ cm/s] | SMILES |
| --- | --- |
| 157 | Cc1ccc(NC(=O)c2cc(-c3ccc[nH]3)n[nH]2)cc1F |
| 826 | Cc1nc(Sc2nnnn2C)c2c(-c3ccccc3)csc2n1 |
| > 1000 | Cc1cccc(S(=O)(=O)c2cn(Cc3ccccc3)c3cc(N4CCCC(C)C4)c(F)cc3c2=O)c1 (stereo not drawn) |
| 56.4 | O=C(O)CCNc1cc(N2CCc3ccccc3CC2)nc(-c2cccnc2)n1 |
| > 1000 | Cc1cc(F)ccc1S(=O)(=O)Nc1cnccc1C(=O)Nc1nc(-c2ccccc2)cs1 |
| 706 | O=C(NC1CCN(c2cc(-c3ccc(Cl)cc3)[nH]n2)C1)c1ccccc1 (stereo not drawn) |
| 685 | NC(=O)C1CCN(c2nc(-c3cccc(F)c3)cs2)CC1 |
| > 1000 | Cc1nn2c(c1-c1ccccc1-c1ccccc1)N(CC1CC1)CCC2 |
| 38 | CCCCNc1oc(-c2cccc3ccccc23)nc1C#N |
| 923 | COc1ccc(NC2CCCN(C(=O)CCc3ccccc3F)C2)cc1 (stereo not drawn) |
| 415 | N#Cc1ccccc1CSc1nc2ncc(Br)cc2[nH]1 |
| 432 | Cc1ccccc1-c1nc(CN2CCC(C(=O)NCCCN3CCOCC3)CC2)c(C)o1 |
| 545 | C#CCNC(=O)c1nc(-c2ccc([S+](C)(=O)[O-])cc2)c2ccccn12 |
| 143 | CN(C(=O)CSc1nc2c(c(=O)[nH]1)CCCC2)c1ccccc1 |
| 473 | Cc1ccc(C(=O)NC2CCN(c3cnn(CC4CC4)c(=O)c3)CC2)cc1C |
| > 1000 | COC(=O)c1ccc([C@H]2c3[nH]c4ccccc4c3C[C@H](C(=O)OC)N2C(=O)CCl)cc1 |
| 577 | Cc1ccc(-c2ccnc(N3CCC(C(N)=O)CC3)n2)cc1 |
| 883 | CCN1C(=O)c2ccccc2S(=O)c2ccc(C(=O)NCc3ccc(OC)cc3)cc21 (stereo not drawn) |
| 31.1 | Cc1cnccc1-c1nc(Nc2ccc(F)c(F)c2)c2ccccc2n1 |
| > 1000 | Cc1cc(C)c(CNC(=O)c2nc(-c3cccc(CO)c3)cc3c2ccn3C)c(=O)[nH]1 |
| > 1000 | OC(CCN1CCCCC1)c1ccc(-c2ccccc2)cc1 (stereo not drawn) |
| 451 | CC(C)Oc1ccc(CNC(=O)C2CCN(C(=O)N3CCOc4ccc(Cl)cc43)CC2)cc1 |
| 82.6 | Cc1ccccc1C(=O)N1CCc2cc(-n3cc(NC(=O)Cc4ccccc4)cn3)ccc21 |

More lines, now with the values behind:

| SMILES | Papp [×10⁻⁶ cm/s] |
| --- | --- |
| Cc1ccc(-c2cc(C(=O)Nc3ccc(S(=O)(=O)NCc4nccs4)cc3)c3ccccc3n2)cc1C | 6 |
| O=C(CCCN1CCC(O)(c2cccc(C(F)(F)F)c2)CC1)c1ccc(F)cc1 | > 1000 |
| NC(=O)C1CCN(c2nc(-c3ccc([N+](=O)[O-])cc3)cs2)CC1 | 604 |
| Nc1nc(N)c2cc(Sc3ccc4ccccc4c3)ccc2n1 | 461 |
| Fc1cc(Nc2nc(-c3ccncc3)nc3ccccc23)ccc1-c1cc(F)c(F)c(F)c1 | 21.1 |
| Cn1c2cc(S(C)=O)sc2c2cnn(Cc3cccc(N)c3)c(=O)c21 (stereo not drawn) | 106 |
| COc1cccc(CNc2ccc(S(=O)(=O)Nc3nc4ccccc4o3)cc2)c1O | 106 |
| Cc1noc(C)c1-c1ccc2ncnc(NC(C)c3ccccc3)c2c1 (stereo not drawn) | > 1000 |
| O=C(Nc1ccc(S(=O)(=O)Nc2nccs2)cc1)c1cc(-c2ccccc2)nc2ccccc12 | 6.3 |
| O=C(CCS(=O)(=O)c1nc(-c2cccs2)cc(C(F)(F)F)n1)Nc1ccc(OC(F)(F)F)cc1 | 5.76 |
| COc1cc(/C=C(\C#N)C(=O)c2ccc(O)c(O)c2)cc(I)c1O | < 1 |
| c1ccc2c(Nc3ccon3)nc(-c3ccncc3)nc2c1 | 247 |
| N#Cc1nc(-c2cccc3ccccc23)oc1Nc1ccccc1 | 821 |
| O=[S+]([O-])(Nc1ccccc1)c1ccc(NCc2cccc(Cl)c2F)cc1 | 383 |
| O=S(=O)(Nc1ccc(S(=O)(=O)Nc2nccs2)cc1)c1ccc2ccccc2c1 | 7.37 |
| CC(=O)c1c(C)[nH]c(C(=O)Nc2cccc([S+](=O)([O-])Nc3c(C)cccc3C)c2)c1C | 117 |
| O=C(Nc1nc(-c2ccccn2)cs1)c1cccc(-n2cnnn2)c1 | 290 |
| COc1ccc(-c2cn[nH]c2-c2ccc(OC)cc2)cc1 | > 1000 |
| CC(=O)c1c(C)[nH]c(C(=O)Nc2cccc(S(=O)(=O)Nc3ccc(Br)cc3)c2)c1C | 288 |
| Cc1ccc(-n2nc(C)c3c(-c4ccc(O)c(O)c4)c(C#N)c(N)nc32)cc1C | 187 |
| CCN(CCCOc1ccc2c(Nc3cc(CC(=O)Nc4cccc(F)c4)[nH]n3)ncnc2c1)CCOP(=O)(O)O | < 1 |
| CC[C@H](NC(=O)[C@H](C)NC)C(=O)N1C[C@@H](O)C[C@H]1Cc1c(-c2[nH]c3cc(F)ccc3c2C[C@H]2C[C@H](O)CN2C(=O)[C@H](CC)NC(=O)[C@H](C)NC)[nH]c2cc(F)ccc12 | < 1 |
| CCN(CC)[S+](=O)([O-])c1cc(NC(=O)c2[nH]c(C)c(C(C)=O)c2C)ccc1OC | 645 |
| Fc1ccc(F)c(Nc2nc(-c3ccncc3)nc3ccccc23)c1 | 455 |
| O=C(Nc1ccc(Oc2ccnc3[nH]ccc23)c(F)c1)c1cccn(-c2ccc(F)cc2)c1=O | 407 |
| COc1nccc(-c2nc(Nc3ccc(F)c(F)c3)c3ccccc3n2)c1OC | > 1000 |
| O=[S+]([O-])(Nc1ccc(N2CCNCC2)cc1)c1ccc(NCc2cccc(Cl)c2O)cc1 | 7.65 |
| C[S+](=O)([O-])c1ccc(-c2nc(C(=O)NCc3cccnc3)n3ccccc23)cc1 | 540 |
| O=C(Nc1ccc(S(=O)(=O)Nc2nccs2)cc1)c1ccncc1 | 1.4 |
| Fc1ccc(Nc2nc(-c3ccnc4ccccc34)nc3ccccc23)cc1F | 202 |
